Target: T1, human GlyT1b (Homo sapiens, UniProt P48067)
T1 construct: expressed in transfected cells
T1 sequence (P48067 1-652 isoform P48067-3): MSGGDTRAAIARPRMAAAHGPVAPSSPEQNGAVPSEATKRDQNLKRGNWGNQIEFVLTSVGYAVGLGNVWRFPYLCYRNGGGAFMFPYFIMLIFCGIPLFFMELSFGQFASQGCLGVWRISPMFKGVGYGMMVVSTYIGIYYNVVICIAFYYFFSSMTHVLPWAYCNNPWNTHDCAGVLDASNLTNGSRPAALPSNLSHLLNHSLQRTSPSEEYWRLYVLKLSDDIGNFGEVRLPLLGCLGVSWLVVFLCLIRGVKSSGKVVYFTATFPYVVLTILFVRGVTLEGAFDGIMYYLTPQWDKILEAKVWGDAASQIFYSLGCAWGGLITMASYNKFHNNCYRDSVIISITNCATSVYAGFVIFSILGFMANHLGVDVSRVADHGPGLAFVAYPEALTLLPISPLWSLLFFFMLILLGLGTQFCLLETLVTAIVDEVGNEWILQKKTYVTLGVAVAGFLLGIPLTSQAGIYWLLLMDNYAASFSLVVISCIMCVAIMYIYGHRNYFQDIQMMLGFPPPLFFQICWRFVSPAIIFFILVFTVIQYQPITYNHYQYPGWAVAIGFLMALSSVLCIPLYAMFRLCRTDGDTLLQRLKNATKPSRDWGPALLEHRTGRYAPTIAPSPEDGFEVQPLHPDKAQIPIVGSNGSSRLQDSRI
Experiment: [3H] Glycine Uptake Assay (SPA) in recombinant hGlyT1b-CHO cells
Assay type: cell-based
Conditions: Table 2, unit from table title
Description: A. [3H] Glycine Uptake Assay
Preparation of recombinant human GlyT1b-CHO cells (hGlyT1b-CHO). The human GlyT1b CDS (GC002087, NM_006934) was cloned downstream of a CMV promoter in a bicistronic expression vector containing a hygromycin B resistance gene. CHO-K1 cells (ATCC) were transfected with the recombinant vector containing GlyT1b using Lipofectamine 2000 (Invitrogen) and cultured in Ham's/F12 media supplemented with 10% fetal bovine serum, 2 mM L-glutamine at 37° C., 5% CO2, 90% humidity. Twenty-four hours after transfection, cells were diluted and switched to media containing 0.5 mg/ml hygromycin B. Antibiotic resistant cells were obtained after 21 days of culture in the presence of hygromycin B. Clonal stable cell lines were isolated by FACS single cell deposition into 96-well plates.
Cells used were Recombinant hGlyT1b/CHO. These cells were cultured in cell culture medium (Ham's/F12 (Modified) (Mediatech, 10-080-CM), containing 10% FBS, 2 mM L-glutamine (Invitrogen 25030-149) and 0.5 mg/mL hygromycin B (Invitrogen, 10687-010)) in 175 cm^2 flasks until near confluence before use in the assay.
Cell medium in a cell culture flask containing near confluent cells was removed and 5 mL of cell stripper was added to submerge all cells on the surface of the culture flask. Cell stripper was removed immediately and the flask incubated in a 37° C. incubator for ˜5 min. Cells were shaken loose and suspended in 5 mL of PBS. After splitting cells to initiate a new flask(s), the cells remaining were collected by centrifugation, counted, and resuspended in assay buffer to a density of ˜2 million/mL. The cell suspension was kept at room temperature before use. The assays buffer was 10 mM HEPES, pH 7.4, containing 150 mM NaCl, 5 mM KCl, 1.5 mM CaCl2, 1.5 mM MgCl2, 0.45 mg/mL L-alanine (added fresh), and 1.8 mg/mL D-glucose (added fresh).
WGA PTV beads were suspended in assay buffer (2 mg/ml) containing 60 nM [^3H]Glycine (PerkinElmer (NET-004, [2-^3H]Glycine, 53.3 Ci/mmol, 1 mCi/mL)) and 20 μM unlabeled glycine and the suspension was kept at room temperature before assay.
To the wells of an OptiPlate, 2 μl DMSO containing a test compound was spotted. This was followed by addition of 98 μl of cell suspension (˜1 million/ml final). After incubating cells with compound for ˜15 min, 100 μl of the SPA (200 μg/well final) and isotope mixture (30 nM isotope with 10 μM cold glycine, final) was added to initiate the glycine uptake. At 2 h, the plate was read on a TopCount to quantify SPA counts.

Which IC50 does the source give for `Cc1cccc(C)c1C(=O)NC(c1cccc(F)c1)C12CCC(CC1)N2` (centres unmarked) [Example 35] here?
The IC50 was 18 nM.

`Cc1cccc(C)c1C(=O)NC(c1ccncc1)C12CCC(CC1)N2C` (centres unmarked) [Example 37] was tested. Which IC50 did it give?
Its IC50 is 6 nM.

For `Cc1cccc(C)c1C(=O)N[C@H](c1ccccc1)C12CCC(CC1)N2CCN` [Example 40], which IC50 is on record?
The IC50 was 13 nM.

For `CC(=O)NCCN1C2CCC1([C@H](NC(=O)c1c(C)cccc1C)c1ccccc1)CC2` [Example 42], which IC50 is on record?
The IC50 was 6 nM.

`CSc1ncccc1C(=O)NC(c1ccccc1)C12CCC(CC1)N2C1CCC1` (centres unmarked) [Example 44] was tested. Which IC50 did it give?
The IC50 was 243 nM.

For `CSc1ncccc1C(=O)NC(c1ccccc1)C12CCC(CC1)N2C(C)C` (centres unmarked) [Example 48], which IC50 is on record?
The IC50 was 23 nM.

With `Cc1cccc(C)c1C(=O)N[C@H](c1ccccc1)C12CCC(CC1)N2Cc1ccccn1` [Example 49] as the compound, how does the IC50 read?
Its IC50 is 155 nM.

How did the IC50 turn out when `CCN1C2CCC1(C(NC(=O)c1c(Cl)cncc1Cl)c1ccccc1)CC2` (centres unmarked) [Example 50] was run?
Its IC50 is 237 nM.

Which IC50 does the source give for `CCN1C2CCC1(C(NC(=O)c1cccnc1SC)c1ccccc1)CC2` (centres unmarked) [Example 51] here?
Its IC50 is 107 nM.

`CCN1C2CCC1(C(NC(=O)c1ccnc(C(F)(F)F)c1F)c1ccccc1)CC2` (centres unmarked) [Example 52] was tested. Which IC50 did it give?
The IC50 was 297 nM.

With `COCCCN1C2CCC1(C(NC(=O)c1cccnc1SC)c1ccccc1)CC2` (centres unmarked) [Example 55] as the compound, how does the IC50 read?
Its IC50 is 310 nM.

How did the IC50 turn out when `Cc1cccc(C)c1C(=O)N[C@H](c1ccccc1)C12CCC(CC1)N2CC1CCCO1` (some centres unmarked) [Example 56] was run?
Its IC50 is 4 nM.

With `CSc1ncccc1C(=O)N[C@H](c1ccccc1)C12CCC(CC1)N2C1CC1` [Example 57] as the compound, how does the IC50 read?
Its IC50 is 45 nM.

How did the IC50 turn out when `Cc1cccc(C)c1C(=O)N[C@H](c1ccccc1)C12CCC(CC1)N2CCC(F)(F)F` [Example 58] was run?
The IC50 was 3 nM.

With `Cc1cccc(C)c1C(=O)NC(c1cccnc1)C12CCC(CC1)N2` (centres unmarked) [Example 60] as the compound, how does the IC50 read?
The IC50 was 30 nM.

With `Cc1cccc(C)c1C(=O)N[C@H](c1ccccc1)C12CCC(CC1)N2Cc1cnn(C)c1` [Example 61] as the compound, how does the IC50 read?
The IC50 was 12 nM.

With `Cc1cccc(C)c1C(=O)NC(c1cccnc1)C12CCC(CC1)N2C` (centres unmarked) [Example 65] as the compound, how does the IC50 read?
Its IC50 is 31 nM.

With `Cc1cccc(Cl)c1C(=O)NC(c1ccccc1)C12CCC(CC1)N2C` (centres unmarked) [Example 67] as the compound, how does the IC50 read?
Its IC50 is 6 nM.

How did the IC50 turn out when `Cc1ccc(C(NC(=O)c2c(C)cccc2C)C23CCC(CC2)N3C)cn1` (centres unmarked) [Example 68] was run?
The IC50 was 129 nM.

With `Cc1cccc(C)c1C(=O)N[C@H](c1ccccc1)C12CCC(CC1)N2CCN1CCCC1` [Example 69] as the compound, how does the IC50 read?
Its IC50 is 51 nM.

How did the IC50 turn out when `Cc1cccc(C)c1C(=O)N[C@H](c1ccccc1)C12CCC(CC1)N2CCN1CCOC1=O` [Example 70] was run?
The IC50 was 3 nM.

How did the IC50 turn out when `Cc1cccc(C)c1C(=O)N[C@H](c1ccccc1)C12CCC(CC1)N2CCN1CCOCC1` [Example 71] was run?
The IC50 was under 2 nM.

`Cc1cccc(C)c1C(=O)N[C@H](c1cncnc1)C12CCC(CC1)N2C` [Example 72] was tested. Which IC50 did it give?
Its IC50 is 148 nM.

With `Cc1cccc(C)c1C(=O)NC(c1cccc(C#N)c1)C12CCC(CC1)N2C` (centres unmarked) [Example 79] as the compound, how does the IC50 read?
The IC50 was 87 nM.

With `Cc1cccc(C)c1C(=O)N[C@H](c1ccccc1)C12CCC(CC1)N2C[C@H]1CCCN1` [Example 80] as the compound, how does the IC50 read?
Its IC50 is 313 nM.

How did the IC50 turn out when `Cc1cc(F)cc(C)c1C(=O)NC(c1ccccc1)C12CCC(CC1)N2C` (centres unmarked) [Example 82] was run?
The IC50 was 4 nM.

Which IC50 does the source give for `Cc1cc(C(NC(=O)c2c(C)cccc2C)C23CCC(CC2)N3)ccn1` (centres unmarked) [Example 83] here?
The IC50 was 136 nM.

`Cc1cccc(C(NC(=O)c2c(C)cccc2C)C23CCC(CC2)N3C)c1` (centres unmarked) [Example 84] was tested. Which IC50 did it give?
Its IC50 is 26 nM.

With `Cc1cccc(C)c1C(=O)NC(c1cccc(C(=O)N(C)C)c1)C12CCC(CC1)N2C` (centres unmarked) [Example 88] as the compound, how does the IC50 read?
Its IC50 is 57 nM.

How did the IC50 turn out when `Cc1cccc(C)c1C(=O)NC(c1ccc(Br)cc1)C12CCC(CC1)N2` (centres unmarked) [Example 89] was run?
Its IC50 is 68 nM.

`Cc1cccc(C)c1C(=O)NC(c1ccc(Br)cc1)C12CCC(CC1)N2C` (centres unmarked) [Example 90] was tested. Which IC50 did it give?
Its IC50 is 4 nM.

Which IC50 does the source give for `COCCN1C2CCC1([C@H](NC(=O)c1ccccc1C)c1ccccc1)CC2` [Example 92] here?
The IC50 was 202 nM.

Which IC50 does the source give for `Cc1cccc(C)c1C(=O)NC(c1ccc(C#N)cc1)C12CCC(CC1)N2C` (centres unmarked) [Example 93] here?
Its IC50 is 226 nM.

`CCc1ccccc1C(=O)N[C@H](c1ccccc1)C12CCC(CC1)N2CCOC` [Example 95] was tested. Which IC50 did it give?
Its IC50 is 68 nM.

With `COCCN1C2CCC1([C@H](NC(=O)c1ccc(F)cc1C)c1ccccc1)CC2` [Example 96] as the compound, how does the IC50 read?
The IC50 was 167 nM.

For `Cc1cccc(C)c1C(=O)NC(c1ccc(N2CCOCC2)cc1)C12CCC(CC1)N2C` (centres unmarked) [Example 97], which IC50 is on record?
The IC50 was 73 nM.

For `CCCOC(=O)c1ccc(C(NC(=O)c2c(C)cccc2C)C23CCC(CC2)N3C)cc1` (centres unmarked) [Example 98], which IC50 is on record?
Its IC50 is 39 nM.

`Cc1cccc(C)c1C(=O)NC(c1ccc(O)cc1)C12CCC(CC1)N2C` (centres unmarked) [Example 99] was tested. Which IC50 did it give?
Its IC50 is 6 nM.

For `CCCOc1ccc(C(NC(=O)c2c(C)cccc2C)C23CCC(CC2)N3C)cc1` (centres unmarked) [Example 100], which IC50 is on record?
Its IC50 is 223 nM.

How did the IC50 turn out when `CC(=O)Nc1cccc(C(NC(=O)c2c(C)cccc2C)C23CCC(CC2)N3C)c1` (centres unmarked) [Example 102] was run?
Its IC50 is 127 nM.

With `CCCCc1cccc(C(NC(=O)c2c(C)cccc2C)C23CCC(CC2)N3C)c1` (centres unmarked) [Example 103] as the compound, how does the IC50 read?
The IC50 was 119 nM.

— patent publication US20120094995A1, “2-AZA-BICYCLO[2.2.1]HEPTANE COMPOUNDS AND USES THEREOF” (ASTRAZENECA AB, priority 2009, published 2012)
